These results are taken from US20240376052A1, “N-SUBSTITUTED INDOLE DERIVATIVES AS SEROTONERGIC AGENTS USEFUL FOR THE TREATMENT OF DISORDERS RELATED THERETO” (Mindset Pharma Inc., priority 2021, published 2024).

Read-outs that look alike come from different tables or passages of the source.

In one series the target is human 5-HT2A receptor (Homo sapiens (Human), UniProt P28223). Put plainly: Human 5-HT2A radioligand binding assay ([3H]-ketanserin).
Series [1] can be described thus: Liver microsomes stability, mouse. The following applies: for Predicted hepatic CL: Mouse liver microsomes; for Remaining Percentage (%): Mouse; for CLint scaled at 2 μM / half-life at 2 μM / microsomal CLint at 2 μM: male, mouse, microsomes. On the procedure: (§1) The objective of this study was to estimate in vitro metabolic stability of representative compounds of the application in pooled human and male mouse liver microsomes. The concentrations of parent compounds in reaction systems were evaluated by LC-MS/MS for estimating the stability in pooled human and male mouse liver microsomes. The in vitro intrinsic clearances of test compounds were determined as well.
(§2) A master solution in the “Incubation Plate” containing phosphate buffer, ultra-pure H2O, MgCl2 solution and liver microsomes was made according to Table 3. The mixture was pre-warmed at 37° C. water bath for 5 minutes.
(§3) 40 μL of 10 mM NADPH solution was added to each well. The final concentration of NADPH was 1 mM. The negative control samples were prepared by replacing NADPH with 40 μL of ultra-pure H2O. Samples were prepared in duplicate. Negative controls were prepared in singlet.
(§4) The reaction was started with the addition of 4 μL of 200 μM test compounds or control compounds to each master solution to get the final concentration of 2 μM. This study was performed in duplicate.
(§5) Aliquots of 50 μL were taken from the reaction solution at 0, 15, 30, 45 and 60 minutes. The reaction solutions were stopped by the addition of 4 volumes of cold methanol with IS (100 nM alprazolam, 200 nM imipramine, 200 nM labetalol and 2 μM ketoprofen). Samples were centrifuged at 3,220 g for 40 minutes. Aliquot of 90 μL of the supernatant was mixed with 90 μL of ultra-pure H2O and then was used for LC-MS/MS analysis.
(§6) LC/MS analysis was performed for all samples from this study using a Shimadzu liquid chromatograph separation system equipped with degasser DGU-20A5R; solvent delivery unit LC-30AD; system controller SIL-30AC; column oven CTO-30A; CTC Analytics HTC PAL System. Mass spectrometric analysis was performed using an Triple Quad™ 5500 instrument.
(§7) All calculations were carried out using Microsoft Excel. Peak area ratios of test compound to internal standard (listed in the below table) were determined from extracted ion chromatograms.
(§8) All calculations were carried out using Microsoft Excel. Peak areas were determined from extracted ion chromatograms. The slope value, k, was determined by linear regression of the natural logarithm of the remaining percentage of the parent drug vs. incubation time curve.
(§9) The in vitro half-life (in vitro t1/2) was determined from the slope value:
(§10) Conversion of the in vitro t1/2(min) into the in vitro intrinsic clearance (in vitro CLint, in μL/min/mg proteins) was done using the following equation (mean of duplicate determinations): […]

Series [2] in a line: Liver microsomes stability, rat. The following applies: for Predicted hepatic CL: Rat liver microsomes; for Remaining Percentage (%): Rat; for CLint scaled at 2 μM / half-life at 2 μM / microsomal CLint at 2 μM: rat, microsomes. Here is the method:
as §1, §2, §3, §4, §5, §6, §7, §8, §9, §10

Series [3] in a line: Liver microsomes stability, human. The following applies: for Predicted hepatic CL: Human liver microsomes; for Remaining Percentage (%): Human; for CLint scaled at 2 μM / half-life at 2 μM / microsomal CLint at 2 μM: human, microsomes. Here is the method:
as §1, §2, §3, §4, §5, §6, §7, §8, §9, §10

Series [4] can be described thus: Liver microsomes stability, dog. The following applies: for Predicted hepatic CL: Dog liver microsomes; for Remaining Percentage (%): Dog; for CLint scaled at 2 μM / half-life at 2 μM / microsomal CLint at 2 μM: dog, microsomes.
Where [5] appears, read: [3H]-ketanserin competition, read-out: h5-HT2A IC50.

As usually defined, the IC50 is the midpoint of a concentration-inhibition curve. Turning to `CCCCC/C=C\C/C=C\CCCCCCCC(=O)n1cc(C2CCN(C)C2)c2ccccc21` (racemic) [Compound I-12, (9Z,12Z)-1-(3-(1-Methylpyrrolidin-3-yl)-1H-indol-1-yl)octadeca-9,12-dien-1-one], the IC50 on human 5-HT2A receptor (setting [5]) lay within 2 to 5 µM.
For the compound `CCCCC/C=C\C/C=C\CCCCCCCC(=O)n1cc(C2CCN(C)C2)c2cc(OC)ccc21` (racemic) [Compound I-13, (9Z,12Z)-1-(5-Methoxy-3-(1-methylpyrrolidin-3-yl)-1H-indol-1-yl)octadeca-9,12-dien-1-one], the IC50 on human 5-HT2A receptor (setting [5]) lay in the range of 2 to 5 µM.
At human 5-HT2A receptor, `[2H]C([2H])([2H])Oc1ccc2c(c1)c(C([2H])([2H])C([2H])([2H])N(C([2H])([2H])[2H])C([2H])([2H])[2H])cn2C(=O)CCCCCCC/C=C\C/C=C\CCCCC` [Compound I-4, (9Z,12Z)-1-(3-(2-(Bis(methyl-d3)amino)ethyl-1,1,2,2-d4)-5-(methoxy-d3)-1H-indol-1-yl)octadeca-9,12-dien-1-one] registered an IC50 of less than 2 µM.
By CLint scaled is commonly meant a measure of how fast metabolising enzymes remove a compound, apart from limits set by blood flow. Lower therefore signals slow turnover. The half-life is the time needed for the level to fall by half in the phase considered. A higher half-life goes with slow loss. In general, microsomal CLint refers to a measure of how fast metabolising enzymes remove a compound, apart from limits set by blood flow. High values mean faster metabolism, low ones greater metabolic stability. As to `CCCCC/C=C\C/C=C\CCCCCCCC(=O)n1cc(C[C@H]2CCCN2C)c2ccccc21` [Compound I-5, (9Z,12Z)-1-(3-(((R)-1-Methylpyrrolidin-2-yl)methyl)-1H-indol-1-yl)octadeca-9,12-dien-1-one], the “Predicted hepatic CL” value in series [1] was 41.60 mL/min/kg; in series [2] it was 24.83 mL/min/kg; in series [3], 6.42 mL/min/kg; in series [4], 21.51 mL/min/kg. Moreover, the “Remaining Percentage (%)” value in series [1] (With NADPH, 0 min) came to 100.00%; in series [1] (With NADPH, 30 min), 74.79%; in series [1] (With NADPH, 60 min) it was 58.84%; in series [1] (Without NADPH, 0 min), 100.00%; in series [1] (Without NADPH, 30 min) it was 80.19%; in series [1] (Without NADPH, 60 min), 90.42%. The “Remaining Percentage (%)” value in series [2] (With NADPH, 0 min) was found to be 100.00%; in series [2] (With NADPH, 30 min) it was 69.74%; in series [2] (With NADPH, 60 min) it was 46.98%; in series [2] (Without NADPH, 0 min), 100.00%; in series [2] (Without NADPH, 30 min), 97.35%; in series [2] (Without NADPH, 60 min) it was 95.87%. The “Remaining Percentage (%)” value came to 100.00% in series [3] (With NADPH, 0 min); 86.52% in series [3] (With NADPH, 30 min); 80.05% in series [3] (With NADPH, 60 min); 100.00% in series [3] (Without NADPH, 0 min); 85.69% in series [3] (Without NADPH, 30 min); 80.25% in series [3] (Without NADPH, 60 min). In addition, the “Remaining Percentage (%)” value in series [4] (With NADPH, 0 min) is 100.00%; in series [4] (With NADPH, 30 min), 65.44%; in series [4] (With NADPH, 60 min), 42.66%; in series [4] (Without NADPH, 0 min), 100.00%; in series [4] (Without NADPH, 30 min), 87.66%; in series [4] (Without NADPH, 60 min) it was 90.58%. Also, the intrinsic clearance (CLint scaled) at 2 μM stood at 77.3 mL/min/kg in series [1], 45.1 mL/min/kg in series [2], 9.3 mL/min/kg in series [3] and 70.8 mL/min/kg in series [4]. Moreover, the half-life at 2 μM is 1.31 h in series [1], 0.917 h in series [2], 3.11 h in series [3] and 0.814 h in series [4]. The microsomal CLint at 2 μM is 17.7 µL/min/mg in series [1], 25.2 µL/min/mg in series [2], 7.42 µL/min/mg in series [3] and 28.4 µL/min/mg in series [4]. This compound returned an IC50 on human 5-HT2A receptor of less than 2 µM.
Turning to `CCCCC/C=C\C/C=C\CCCCCCCC(=O)n1cc(C[C@H]2CCCN2C)c2cc(OC)ccc21` [Compound I-6, (9Z,12Z)-1-(5-Methoxy-3-(((R)-1-methylpyrrolidin-2-yl)methyl)-1H-indol-1-yl)octadeca-9,12-dien-1-one], the “Predicted hepatic CL” value in series [1] is reported as 33.37 mL/min/kg; in series [2] it was 14.24 mL/min/kg; in series [3], 4.62 mL/min/kg; in series [4] it was 22.75 mL/min/kg. For the same compound, the “Remaining Percentage (%)” value in series [1] (With NADPH, 0 min) is recorded as 100.00%; in series [1] (With NADPH, 30 min), 76.15%; in series [1] (With NADPH, 60 min) it was 69.51%; in series [1] (Without NADPH, 0 min), 100.00%; in series [1] (Without NADPH, 30 min) it was 81.25%; in series [1] (Without NADPH, 60 min) it was 91.07%. The “Remaining Percentage (%)” value came out at 100.00% in series [2] (With NADPH, 0 min); 83.04% in series [2] (With NADPH, 30 min); 72.53% in series [2] (With NADPH, 60 min); 100.00% in series [2] (Without NADPH, 0 min); 93.17% in series [2] (Without NADPH, 30 min); 92.62% in series [2] (Without NADPH, 60 min). Besides, the “Remaining Percentage (%)” value in series [3] (With NADPH, 0 min) was determined as 100.00%; in series [3] (With NADPH, 30 min), 91.33%; in series [3] (With NADPH, 60 min) it was 86.76%; in series [3] (Without NADPH, 0 min), 100.00%; in series [3] (Without NADPH, 30 min), 89.58%; in series [3] (Without NADPH, 60 min), 83.22%. Besides, the “Remaining Percentage (%)” value in series [4] (With NADPH, 0 min) is on record as 100.00%; in series [4] (With NADPH, 30 min) it was 49.51%; in series [4] (With NADPH, 60 min), 35.40%; in series [4] (Without NADPH, 0 min) it was 100.00%; in series [4] (Without NADPH, 30 min), 84.09%; in series [4] (Without NADPH, 60 min), 91.76%. The CLint scaled at 2 μM in series [1] stood at 53 mL/min/kg; in series [2], 19.2 mL/min/kg; in series [3], 5.94 mL/min/kg; in series [4] it was 86.3 mL/min/kg. Moreover, the half-life at 2 μM was 1.91 h in series [1], 2.16 h in series [2], 4.88 h in series [3] and 0.667 h in series [4]. The intrinsic clearance (microsomal CLint) at 2 μM in series [1] was 12.1 µL/min/mg; in series [2] it was 10.7 µL/min/mg; in series [3], 4.74 µL/min/mg; in series [4] it was 34.6 µL/min/mg. Also, the IC50 at human 5-HT2A receptor was less than 2 µM.
Turning to `[2H]c1c([2H])c([2H])c2c(c1[2H])c(CCN(C([2H])([2H])[2H])C([2H])([2H])[2H])c([2H])n2C(=O)CCCCCCC/C=C\C/C=C\CCCCC` [Compound I-7, (9Z,12Z)-1-(3-(2-(Bis(methyl-d3)amino)ethyl)-1H-indol-1-yl-2,4,5,6,7-d5)octadeca-9,12-dien-1-one], the IC50 on human 5-HT2A receptor was 2 to 5 µM.
Same read-out and setting: with `[2H]C([2H])([2H])N(C([2H])([2H])[2H])C([2H])([2H])C([2H])([2H])c1cn(C(=O)CCCCCCC/C=C\C/C=C\CCCCC)c2cccc(F)c12` [Compound I-9, (9Z,12Z)-1-(3-(2-(Bis(methyl-d3)amino)ethyl-1,1,2,2-d4)-4-fluoro-1H-indol-1-yl)octadeca-9,12-dien-1-one] the figure was 2 to 5 µM.
